In US20260284115A1, “THERAPEUTICS AND METHODS” (CAMBRIDGE ENTERPRISE LIMITED, priority 2022, published 2026):

Tested on: NALCN
Experiment: Circulating ZsGreen+ cells (CZCs) in peripheral blood of non-tumour-bearing mice after NALCN blockade
Type: in vivo
Conditions: Prom1^CreERT2/Lacz; Rosa26^ZSG; Nalcn^+/+ mice without oncogenic alleles, n=10; FIG. 1a
Procedure: Peripheral blood (500 μl-1 ml) was harvested from mice at autopsy into 10 μl of 0.5M EDTA, diluted in PBS and assessed by MACSQuant Analyzer (Miltenyi Biotech Inc.) for ZSgreen expression (525/50 nm [FITC] vs 614/50 nm [PI]). Cells for single cell RNA sequencing and tail vein injection were sorted using a BD FACSAria II Cell Sorter (BD Biosciences) excitation at 525/50 nm (FITC) vs 614/50 nm (PI). Non-tamoxifen induced mouse peripheral blood served as a negative control to set gate parameters. Twenty-five thousand ZSG^+ cells were sorted and injected into recipient NOD SCID gamma mice (Charles River) and aged. For serial dilution assessment of tCZC metastasis initiation, tCZCs were isolated from donor tumour-bearing via FACS based on ZSGreen expression and placed into culture medium. Culture medium: Advanced DMEM/F12 (31330038, ThermoFisher), 2 mM L-glutamine (25030024, ThermoFisher), B27 (12587010, ThermoFisher), N2 (A1370701, ThermoFisher), containing growth factors (50 ng/ml EGF [Peprotech], 100 ng/ml bFGF [100-18c, Peprotech] and 1% FBS (10500064, ThermoFisher). Cells were grown at 37° C. in 5% CO2. Recipient NOD SCID gamma mice (Charles River) were injected with either 10, 100, 1,000 or 10,000 tCZC cells via tail-vein injection and aged. Full autopsy and tissue harvesting were performed as described above.

Question: With `[Cl][Gd]([Cl])[Cl]` [Gadolinium chloride] as the molecule, how does the “numbers of CZCs (circulating ZSG+ cells) in peripheral blood; stem cell-like cell shedding” value read?
Answer: significantly increased
